# Source: ChEMBL document CHEMBL1149355, “Structure-activity relationships for the linker in a series of pyridinyl-alkynes that are antagonists of the metabotropic glutamate receptor 5 (mGluR5)” (Bioorg Med Chem Lett, 2006)
# Active and inactive are the calls of the source. The calls are words filed in the database; no cut-off is given here.
# Key:
# [1] = target: Metabotropic glutamate receptor 5 (Homo sapiens, UniProt P41594); assay: Activity at human mGluR5d assessed as inhibition of glutamate-induced calcium influx by FLIPR assay; assay type: functional
# [2] = target: Metabotropic glutamate receptor 1 (Homo sapiens) (UniProt Q13255); assay: Activity at human mGluR1 assessed as inhibition of glutamate-induced calcium influx by FLIPR assay; assay type: functional
# [3] = target: Metabotropic glutamate receptor 4 (Homo sapiens) (UniProt Q14833); assay: Activity at human mGluR4 assessed as inhibition of glutamate-induced calcium influx by FLIPR assay; assay type: functional
# [4] = target: Metabotropic glutamate receptor 3 (Homo sapiens) (UniProt Q14832); assay: Activity at human mGluR3 assessed as inhibition of glutamate-induced calcium influx by FLIPR assay; assay type: functional
# [5] = target: Metabotropic glutamate receptor 8 (Homo sapiens) (UniProt O00222); assay: Activity at human mGluR8 assessed as inhibition of glutamate-induced calcium influx by FLIPR assay; assay type: functional
# [6] = Intrinsic clearance in rat liver microsomes; assay type: ADME, Microsome
# [7] = Volume of distribution in dog; assay type: ADME, organism-based, Canis lupus familiaris; conditions: in vivo, read-out: Vss
# Canis familiaris = assay: Inhibition of transient lower esophageal sphincter relaxation in dog at 3.9 umol/kg, iv; assay type: functional, Canis lupus familiaris; parameters: scale not given: the % may be the effect or the level left
# [8] = Clearance in dog; assay type: ADME, organism-based, Canis lupus familiaris; conditions: in vivo
# [9] = Half life in dog; assay type: ADME, organism-based, Canis lupus familiaris; conditions: in vivo
# Sequence of Metabotropic glutamate receptor 5 (P41594 whole entry): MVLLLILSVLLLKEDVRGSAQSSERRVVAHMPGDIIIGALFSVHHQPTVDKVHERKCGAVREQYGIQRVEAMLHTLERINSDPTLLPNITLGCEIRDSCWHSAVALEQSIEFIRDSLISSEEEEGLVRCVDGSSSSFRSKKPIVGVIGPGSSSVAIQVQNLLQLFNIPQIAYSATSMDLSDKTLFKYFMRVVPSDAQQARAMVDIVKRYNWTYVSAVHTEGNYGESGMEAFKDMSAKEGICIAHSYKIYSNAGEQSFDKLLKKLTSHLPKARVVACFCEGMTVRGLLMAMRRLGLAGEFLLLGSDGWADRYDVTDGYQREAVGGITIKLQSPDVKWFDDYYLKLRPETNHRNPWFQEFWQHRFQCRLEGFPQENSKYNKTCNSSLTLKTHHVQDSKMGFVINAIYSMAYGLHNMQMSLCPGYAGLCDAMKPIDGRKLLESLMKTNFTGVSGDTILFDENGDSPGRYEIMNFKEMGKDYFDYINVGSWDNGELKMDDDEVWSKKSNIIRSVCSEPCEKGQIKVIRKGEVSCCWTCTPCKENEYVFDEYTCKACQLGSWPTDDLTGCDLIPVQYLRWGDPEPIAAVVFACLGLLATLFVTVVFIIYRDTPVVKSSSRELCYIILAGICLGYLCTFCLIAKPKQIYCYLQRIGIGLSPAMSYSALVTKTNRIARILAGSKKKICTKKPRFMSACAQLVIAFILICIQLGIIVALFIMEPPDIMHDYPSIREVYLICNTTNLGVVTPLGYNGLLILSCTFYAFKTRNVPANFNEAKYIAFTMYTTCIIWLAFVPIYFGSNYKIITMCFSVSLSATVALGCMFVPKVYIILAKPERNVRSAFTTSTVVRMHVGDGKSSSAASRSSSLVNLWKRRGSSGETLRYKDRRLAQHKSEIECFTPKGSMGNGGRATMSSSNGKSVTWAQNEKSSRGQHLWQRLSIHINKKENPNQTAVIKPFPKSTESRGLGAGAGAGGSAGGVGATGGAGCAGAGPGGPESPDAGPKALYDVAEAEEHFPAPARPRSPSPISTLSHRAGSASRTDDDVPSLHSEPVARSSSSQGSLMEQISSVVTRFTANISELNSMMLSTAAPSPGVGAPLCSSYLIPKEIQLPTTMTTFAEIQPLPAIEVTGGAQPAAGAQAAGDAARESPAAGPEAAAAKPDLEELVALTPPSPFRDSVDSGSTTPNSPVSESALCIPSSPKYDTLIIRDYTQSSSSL
# Sequence of Metabotropic glutamate receptor 1 (Homo sapiens) (Q13255 19-1194 limits assumed): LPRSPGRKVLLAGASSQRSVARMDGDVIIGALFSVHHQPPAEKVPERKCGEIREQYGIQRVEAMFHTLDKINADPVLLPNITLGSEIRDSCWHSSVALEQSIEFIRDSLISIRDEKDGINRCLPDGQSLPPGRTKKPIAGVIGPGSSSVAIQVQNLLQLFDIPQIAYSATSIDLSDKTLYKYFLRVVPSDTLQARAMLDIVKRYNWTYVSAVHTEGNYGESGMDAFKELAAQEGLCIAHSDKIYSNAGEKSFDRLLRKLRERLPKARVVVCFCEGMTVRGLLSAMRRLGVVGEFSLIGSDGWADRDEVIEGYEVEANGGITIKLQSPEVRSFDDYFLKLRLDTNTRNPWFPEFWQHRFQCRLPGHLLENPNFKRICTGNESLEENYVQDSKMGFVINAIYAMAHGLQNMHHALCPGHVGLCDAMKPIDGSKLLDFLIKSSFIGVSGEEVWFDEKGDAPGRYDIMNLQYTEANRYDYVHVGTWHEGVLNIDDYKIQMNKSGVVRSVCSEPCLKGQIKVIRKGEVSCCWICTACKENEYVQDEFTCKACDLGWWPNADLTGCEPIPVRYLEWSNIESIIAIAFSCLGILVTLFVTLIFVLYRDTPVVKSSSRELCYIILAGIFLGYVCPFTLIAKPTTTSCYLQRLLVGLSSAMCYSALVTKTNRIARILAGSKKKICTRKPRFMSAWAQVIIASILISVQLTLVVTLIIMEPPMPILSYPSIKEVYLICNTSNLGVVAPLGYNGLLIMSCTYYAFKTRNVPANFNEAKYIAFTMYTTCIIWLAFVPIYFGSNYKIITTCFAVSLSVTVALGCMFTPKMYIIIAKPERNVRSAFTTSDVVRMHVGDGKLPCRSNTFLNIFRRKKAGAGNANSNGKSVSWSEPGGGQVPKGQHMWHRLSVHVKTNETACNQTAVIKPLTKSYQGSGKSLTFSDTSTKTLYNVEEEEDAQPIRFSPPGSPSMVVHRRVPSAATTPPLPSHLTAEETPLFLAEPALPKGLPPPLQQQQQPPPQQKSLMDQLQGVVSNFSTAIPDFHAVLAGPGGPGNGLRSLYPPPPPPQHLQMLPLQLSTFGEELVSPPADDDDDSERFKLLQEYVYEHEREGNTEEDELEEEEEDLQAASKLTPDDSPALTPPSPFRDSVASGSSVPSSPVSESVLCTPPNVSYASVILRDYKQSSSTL
# Sequence of Metabotropic glutamate receptor 8 (Homo sapiens) (O00222 whole entry): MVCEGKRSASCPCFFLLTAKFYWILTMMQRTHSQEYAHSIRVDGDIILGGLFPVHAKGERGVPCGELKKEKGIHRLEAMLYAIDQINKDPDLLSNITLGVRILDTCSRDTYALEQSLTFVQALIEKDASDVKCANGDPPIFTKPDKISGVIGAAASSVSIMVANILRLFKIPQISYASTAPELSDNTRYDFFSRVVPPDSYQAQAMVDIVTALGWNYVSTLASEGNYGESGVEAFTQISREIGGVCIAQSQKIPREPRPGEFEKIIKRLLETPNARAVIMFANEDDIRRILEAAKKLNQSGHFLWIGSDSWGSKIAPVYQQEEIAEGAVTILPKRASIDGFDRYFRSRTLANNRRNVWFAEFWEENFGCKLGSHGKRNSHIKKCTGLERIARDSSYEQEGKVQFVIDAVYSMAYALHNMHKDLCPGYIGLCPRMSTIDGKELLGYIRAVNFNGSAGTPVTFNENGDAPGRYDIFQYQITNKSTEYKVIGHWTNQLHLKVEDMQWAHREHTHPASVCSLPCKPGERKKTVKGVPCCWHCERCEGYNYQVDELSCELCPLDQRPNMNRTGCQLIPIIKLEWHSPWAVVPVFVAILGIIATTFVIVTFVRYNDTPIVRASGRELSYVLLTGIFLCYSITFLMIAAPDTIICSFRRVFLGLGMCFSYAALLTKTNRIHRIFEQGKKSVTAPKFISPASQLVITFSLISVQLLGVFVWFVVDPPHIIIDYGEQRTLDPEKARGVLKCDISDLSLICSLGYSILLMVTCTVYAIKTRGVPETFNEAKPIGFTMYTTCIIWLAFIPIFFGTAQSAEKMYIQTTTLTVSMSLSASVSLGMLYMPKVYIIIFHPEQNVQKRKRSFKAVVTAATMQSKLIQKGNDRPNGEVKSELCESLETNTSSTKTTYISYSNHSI
# Sequence of Metabotropic glutamate receptor 4 (Homo sapiens) (Q14833 whole entry): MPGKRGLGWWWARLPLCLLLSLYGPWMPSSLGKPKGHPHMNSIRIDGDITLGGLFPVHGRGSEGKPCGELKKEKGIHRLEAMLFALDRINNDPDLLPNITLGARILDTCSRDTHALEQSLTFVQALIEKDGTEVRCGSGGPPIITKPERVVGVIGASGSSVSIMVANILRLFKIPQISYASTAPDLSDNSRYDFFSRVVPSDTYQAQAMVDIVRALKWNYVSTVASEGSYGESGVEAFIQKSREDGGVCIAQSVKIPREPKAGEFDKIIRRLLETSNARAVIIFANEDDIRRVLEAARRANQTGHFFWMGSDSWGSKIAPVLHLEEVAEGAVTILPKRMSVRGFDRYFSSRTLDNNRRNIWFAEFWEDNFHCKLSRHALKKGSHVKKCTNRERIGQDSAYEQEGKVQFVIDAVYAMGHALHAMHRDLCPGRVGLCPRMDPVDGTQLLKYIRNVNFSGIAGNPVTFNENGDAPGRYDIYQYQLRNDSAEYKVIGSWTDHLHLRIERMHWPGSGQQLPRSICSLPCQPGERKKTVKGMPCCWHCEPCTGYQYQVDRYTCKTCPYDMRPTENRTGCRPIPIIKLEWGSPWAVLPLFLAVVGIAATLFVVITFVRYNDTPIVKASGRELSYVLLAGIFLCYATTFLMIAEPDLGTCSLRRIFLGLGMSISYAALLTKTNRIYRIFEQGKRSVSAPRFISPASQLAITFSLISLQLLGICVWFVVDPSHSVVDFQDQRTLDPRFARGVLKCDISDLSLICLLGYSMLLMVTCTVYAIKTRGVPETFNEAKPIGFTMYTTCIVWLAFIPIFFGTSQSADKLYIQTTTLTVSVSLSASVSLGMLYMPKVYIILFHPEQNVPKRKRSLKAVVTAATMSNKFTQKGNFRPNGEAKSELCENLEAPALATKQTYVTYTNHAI
# Sequence of Metabotropic glutamate receptor 3 (Homo sapiens) (Q14832 23-879 limits assumed): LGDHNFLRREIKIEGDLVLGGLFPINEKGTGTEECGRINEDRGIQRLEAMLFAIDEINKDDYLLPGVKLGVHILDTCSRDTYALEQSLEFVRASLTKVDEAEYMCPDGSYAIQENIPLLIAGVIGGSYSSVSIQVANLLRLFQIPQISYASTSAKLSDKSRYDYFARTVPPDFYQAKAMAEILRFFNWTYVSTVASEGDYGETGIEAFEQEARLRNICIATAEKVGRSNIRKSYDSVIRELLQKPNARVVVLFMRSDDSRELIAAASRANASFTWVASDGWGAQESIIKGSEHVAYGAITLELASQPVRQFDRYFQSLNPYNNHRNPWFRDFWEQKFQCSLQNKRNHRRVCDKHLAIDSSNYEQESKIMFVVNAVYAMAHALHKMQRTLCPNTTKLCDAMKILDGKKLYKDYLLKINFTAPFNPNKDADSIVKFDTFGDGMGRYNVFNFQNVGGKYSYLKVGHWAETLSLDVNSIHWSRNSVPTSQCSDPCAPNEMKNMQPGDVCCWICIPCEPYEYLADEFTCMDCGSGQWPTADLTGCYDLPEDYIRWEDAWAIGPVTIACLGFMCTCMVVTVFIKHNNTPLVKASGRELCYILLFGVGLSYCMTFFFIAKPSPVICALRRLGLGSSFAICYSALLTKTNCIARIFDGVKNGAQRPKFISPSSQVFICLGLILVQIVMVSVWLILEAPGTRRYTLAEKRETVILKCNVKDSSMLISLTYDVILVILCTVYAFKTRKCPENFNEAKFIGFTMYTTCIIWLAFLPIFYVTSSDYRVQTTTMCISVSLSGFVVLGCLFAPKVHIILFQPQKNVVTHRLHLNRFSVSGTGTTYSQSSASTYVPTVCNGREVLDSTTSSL
SMILES,IC50 [1] [nM],Activity [2],further results
Cc1cccc(C#CCNC(=O)c2cccc(Cl)c2)n1,2610,–,–
Cc1cccc(C#CCC(C)c2ccccc2)n1 (configuration not stated),59,–,–
Cc1cccc(C#CCOc2cccc(Cl)c2)n1,–,inactive,–
Cc1cccc(C#CC(Sc2cccc(Cl)c2)C(C)C)n1 (configuration not stated),461,–,–
CCC(C#Cc1cccc(C)n1)Sc1cccc(Cl)c1 (configuration not stated),862,–,–
Cc1cccc(C#CCNc2cccc(Cl)c2)n1,174,inactive,–
Cc1cccc(C#CCSc2cccc(Cl)c2)n1,43,inactive,–
Cc1cccc(C#CC(C)Nc2cccc(Cl)c2)n1 (configuration not stated),709,inactive,–
Cc1cccc(C#CCCCc2ccccc2)n1,258,–,–
Cc1cccc(C#CC(C)Sc2cccc(Cl)c2)n1 (configuration not stated),118,inactive,–
Cc1cccc(C#CCNC(=O)Nc2cccc(Cl)c2)n1,> 10000,–,–
Cc1cccc(C#CC(C)Oc2cccc(Cl)c2)n1 (configuration not stated),281,inactive,–
Cc1cccc(C#CCCc2cccc(Cl)c2)n1,5,inactive,Activity [3]: inactive; Activity [4]: inactive; microsomal CLint [6]: 197 µL/min/mg; Vd [7]: 3.2 L/kg; Activity (Canis familiaris): 31%; Activity [5]: inactive; clearance [8]: 66 mL/min/kg; half-life [9]: 2 h

# Further lines, with some results ahead:
IC50 [1] [nM],Activity [2],SMILES,further results
306,–,Cc1cccc(C#Cc2cc3ccccc3s2)n1,–
> 10000,–,Cc1cccc(C#CC(=O)Nc2ccccc2)n1,–
78,–,Cc1cccc(C#CCCc2ccccc2)n1,Activity [3]: inactive; Activity [4]: inactive; Activity [5]: inactive
589,–,Cc1cccc(C#CCSc2ccccc2)n1,–
6730,–,Cc1cccc(C#CCN(C)c2ccccc2)n1,–
223,–,Cc1cccc(C#CCNc2ccccc2)n1,–
> 10000,–,Cc1cccc(C#CC[S+]([O-])c2ccccc2)n1 (configuration not stated),–
